Experimental data reported in ChEMBL document CHEMBL5728238, “Inhibiting agents for Bruton's tyrosine kinase” (2021).

Biological target: Tyrosine-protein kinase BTK (Homo sapiens, UniProt Q06187)
Experiment: In Vitro Kinase Assay: The purpose of the BTK in vitro assay is to determine compound potency against BTK through the measurement of IC50. Compound inhibition is measured after monitoring the amount of phosphorylation of a fluorescein-labeled polyGAT peptide (Invitrogen PV3611) in the presence of active BTK enzyme (Upstate 14-552), ATP, and inhibitor. The BTK kinase reaction was done in a black 96 well plate (costar 3694). For a typical assay, a […] aliquot of a ATP/peptide master mix (final concentration; […], polyGAT 100 nM) in kinase buffer (10 mM Tris-HCl pH 7.5, 10 mM MgCl2, 200 μM Na3PO4, 5 mM DTT, 0.01% Triton X-100, and 0.2 mg/ml casein) is added to each well. Next, […] of a 4-fold, 40× compound titration in 100% DMSO solvent is added, followed by adding 15 μL of BTK enzyme mix in 1× kinase buffer (with a final concentration of 0.25 nM). The assay is incubated for 30 minutes before being stopped with 28 μL of a 50 mM EDTA solution. Aliquots (5 μL) of the kinase reaction are transferred to a low volume white 384 well plate (Corning 3674), and 5 μL of a 2× detection buffer (Invitrogen PV3574, with 4 nM Tb-PY20 antibody, Invitrogen PV3552) is added. The plate is covered and incubated for 45 minutes at room temperature. Time resolved fluorescence (TRF) on Molecular Devices M5 (332 nm excitation; 488 nm emission; 518 nm fluorescein emission) is measured. […]

Chain of Tyrosine-protein kinase BTK (Q06187 whole entry): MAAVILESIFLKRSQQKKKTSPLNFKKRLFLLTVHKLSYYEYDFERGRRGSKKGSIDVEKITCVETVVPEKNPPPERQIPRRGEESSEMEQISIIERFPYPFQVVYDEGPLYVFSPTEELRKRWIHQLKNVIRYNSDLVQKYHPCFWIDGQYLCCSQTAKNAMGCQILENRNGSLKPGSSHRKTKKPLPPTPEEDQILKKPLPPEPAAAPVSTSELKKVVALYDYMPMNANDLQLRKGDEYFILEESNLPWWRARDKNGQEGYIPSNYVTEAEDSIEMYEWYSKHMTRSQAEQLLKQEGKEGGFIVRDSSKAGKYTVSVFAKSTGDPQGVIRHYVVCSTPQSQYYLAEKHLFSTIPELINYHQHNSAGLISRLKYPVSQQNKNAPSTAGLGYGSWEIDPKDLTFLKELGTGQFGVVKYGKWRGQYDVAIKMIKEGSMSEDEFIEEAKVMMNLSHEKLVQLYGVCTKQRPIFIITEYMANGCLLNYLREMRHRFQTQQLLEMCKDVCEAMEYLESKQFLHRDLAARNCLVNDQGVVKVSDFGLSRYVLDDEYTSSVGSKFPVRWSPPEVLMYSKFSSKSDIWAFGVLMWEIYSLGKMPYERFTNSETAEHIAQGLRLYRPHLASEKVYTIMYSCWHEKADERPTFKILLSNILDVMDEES

SMILES	IC50
Cc1cc(-c2ncnc(Nc3cnn(C)c3)n2)ccc1CNC(=O)c1cc(C(C)(C)C)on1	< 1 nM
Cc1cc(-c2ncnc(Nc3cnn(C)c3)n2)ccc1CNC(=O)c1noc(C2[C@@H](C)[C@H]2C)n1 (some centres not stated)	< 1 nM
